# Literature values, collected in patent US7378261B2, “Method for preparing para-hydroxystyrene by biocatalytic decarboxylation of para-hydroxycinnamic acid in a biphasic reaction medium” (E.I. du Pont de Nemours and Company, priority 2003, dated 2008).
# Conditions: logarithm of solvent's partition coefficient in standard octanol:water mixture
row,Structure (SMILES),log P
1,CCCCCCCCC(C)O (centres unmarked) [2-decanol],3.71
2,CCCCCC(C)O (centres unmarked) [2-heptanol],2.24
3,CCCCCCCC(C)O (centres unmarked) [2-nonanol],3.22
4,CCCCCCCCCC(C)=O [2-undecanone],4.21
5,CCCCCCCC(=O)CC [3-decanone],3.2
6,CCCCCCC(O)CCC (centres unmarked) [4-decanol],3.71
7,CCCCCCC(=O)CCC [4-decanone],3.2
8,CCCCCC [hexane],3.9
